This is an account of results in BindingDB's records for patent US20230416268 (Enanta Pharmaceuticals, 2023).

In this test the target is T1, 17-beta-hydroxysteroid dehydrogenase 13 (Homo sapiens, UniProt Q7Z5P4).
T1 sequence (Q7Z5P4 whole entry): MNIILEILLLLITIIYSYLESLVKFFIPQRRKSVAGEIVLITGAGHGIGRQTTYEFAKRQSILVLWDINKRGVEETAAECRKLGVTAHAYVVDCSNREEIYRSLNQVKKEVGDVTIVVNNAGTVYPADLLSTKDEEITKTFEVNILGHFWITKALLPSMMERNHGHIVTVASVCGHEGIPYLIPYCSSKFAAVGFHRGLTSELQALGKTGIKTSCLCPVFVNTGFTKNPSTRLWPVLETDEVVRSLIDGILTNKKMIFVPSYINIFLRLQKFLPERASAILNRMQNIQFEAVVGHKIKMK
In words: 17β-HSD13 Rapid-Fire Mass Spectrometry Assay. The source says: Recombinant human 17β-HSD13 was expressed and purified from sf9 cells at Charles River Labs (Saffron Walden, UK). Leukotriene B4 (Catalog #71160-24-2) and 12-oxoleukotriene B4 (Catalog #20140) were purchased from Cayman Chemicals (Ann Arbor, MI). NAD+ (Catalog #N8285), BSA (Catalog #A7030), DMSO (Catalog #D2650), and Tween-20 (Catalog #11332465001) were purchased from Sigma (St. Louis, MO). Formic acid (Catalog #28905) was from ThermoFisher Scientific and 384 deep well PP microplates (Catalog #784261) were from Greiner Bio-One. In a typical IC50 assay performed in a 384w PP microplate, test compounds (0-100 μM) were incubated with HSD17B13 (80 nM), LTB4 (10 μM), and NAD+ (0.5 mM) in 10 μL assay buffer (20 mM Tris (pH 7.5), BSA (0.005%), and Tween-20 (0.01%)) at RT for 3 h. The assays were quenched by adding 20 μL of 0.15% aqueous formic acid and the plates were frozen at −80° C. RF/MS analysis was performed at PureHoney Technologies (Billerica, MA) on a RapidFire RF300 system (Agilent Technologies, Inc.) coupled to an API 4000 triple quadrupole mass spectrometer (Sciex) equipped with Agilent RapidFire cartridge type A (C4). […] Leukotriene B4 (335.3) and 12-oxoLeukotriene B4 (333.3) SRM transitions were optimized with Discovery Quant software and extracted ion counts for these analytes were determined.

Structures are written as SMILES.

In general, IC50 refers to the midpoint of a concentration-inhibition curve. With `COc1ccc(-c2nc3sc4c(O)cccc4c3c(=O)n2CCNCc2cnc[nH]2)c(C2CC2)c1` [US20230416268, Example 31], the half-maximal inhibitory concentration (IC50) is less than 100 nM.
